# Reference: patent publication US20240092784A1, “CONDENSED HETEROCYCLIC COMPOUND” (NISSAN CHEMICAL CORPORATION, priority 2020, published 2024)
# Molecular target: human SPR (Homo sapiens (Human), UniProt P35270)
# Assay: Evaluation Example 2: Measurement of human SPR inhibitory activity (seven concentrations, sepiapterin absorbance at 420 nm)
# Assay type: biochemical
# Settings: Evaluation Example 2, seven concentrations 0.14 nM to 100 nM, 240 minutes at room temperature, read-out: IC50
# In short: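 His-tagged full-length human SPR (1-261) was expressed in E. coli and the tag removed. Enzyme at 150 ng/mL in 100 mM Tris-HCl pH 7.5/0.01% BSA was mixed with compound (0.14–100 nM, seven points), 120 μM sepiapterin and 160 μM NADPH, both as added-solution concentrations. After 240 min at room temperature, remaining sepiapterin was read at 420 nm to give percent inhibition.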
# human SPR, sequence (P35270 whole entry): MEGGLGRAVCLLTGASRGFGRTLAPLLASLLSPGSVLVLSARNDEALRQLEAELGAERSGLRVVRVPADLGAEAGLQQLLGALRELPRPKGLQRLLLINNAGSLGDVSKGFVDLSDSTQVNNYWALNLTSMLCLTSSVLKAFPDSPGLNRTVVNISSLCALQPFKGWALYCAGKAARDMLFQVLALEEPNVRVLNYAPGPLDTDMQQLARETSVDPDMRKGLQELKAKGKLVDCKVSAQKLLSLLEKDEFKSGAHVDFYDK
row,Structure (SMILES),IC50
1,"CC(C)Cn1c(=O)c(C(=O)NC2CC2)c(O)n2ncc(/C=C/C(=O)N3CCOCC34CCC4)c12 [compound 547, (E)-N-Cyclopropyl-7-hydroxy-4-isobutyl-5-oxo-3-(3-oxo-3-(8-oxa-5-azaspiro[3,5]nonan-5-yl)prop-1-en-1-yl)-4,5-dihydropyrazolo[1,5-a]pyrimidine-6-carboxamide]",0.74 nM
2,"COC[C@H]1CCCN1C(=O)/C=C/c1cnn2c(O)c(C(=O)NC3CC3)c(=O)n(CC(C)C)c12 [compound 548, (R,E)-N-Cyclopropyl-7-hydroxy-4-isobutyl-3-(3-(2-(methoxymethyl)pyrrolidin-1-yl)-3-oxoprop-1-en-1-yl)-5-oxo-4,5-dihydropyrazolo[1,5-a]pyrimidine-6-carboxamide]",0.79 nM
3,"COC[C@@H]1CCCN1C(=O)/C=C/c1cnn2c(O)c(C(=O)NC3CC3)c(=O)n(CC(C)C)c12 [compound 549, (S,E)-N-Cyclopropyl-7-hydroxy-4-isobutyl-3-(3-(2-(methoxymethyl)pyrrolidine-1-yl)-3-oxoprop-1-en-1-yl)-5-oxo-4,5-dihydropyrazolo[1,5-a]pyrimidine-6-carboxamide]",0.73 nM
4,"CC(C)Cn1c(=O)c(C(=O)NCC(F)(F)F)c(O)n2ncc(/C=C/C(=O)N3CCOCC3)c12 [compound 552, (E)-7-Hydroxy-4-isobutyl-3-(3-morpholino-3-oxoprop-1-en-1-yl)-5-oxo-N-(2,2,2-trifluoroethyl)-4,5-dihydropyrazolo[1,5-a]pyrimidine-6-carboxamide]",0.88 nM
5,"CC(C)Cn1c(=O)c(C(=O)NC2CC2)c(O)n2ncc(/C=C/C(=O)N3CCC3)c12 [compound 553, (E)-3-(3-(Azetidin-1-yl)-3-oxoprop-1-en-1-yl)-N-cyclopropyl-7-hydroxy-4-isobutyl-5-oxo-4,5-dihydropyrazolo[1,5-a]pyrimidine-6-carboxamide]",0.99 nM
6,"CC(C)Cn1c(=O)c(C(=O)NC2CC2)c(O)n2ncc(/C=C/C(=O)N3CC(F)C3)c12 [compound 554, (E)-N-Cyclopropyl-3-(3-(3-fluoroazetidin-1-yl)-3-oxoprop-1-en-1-yl)-7-hydroxy-4-isobutyl-5-oxo-4,5-dihydropyrazolo[1,5-a]pyrimidine-6-carboxamide]",0.77 nM
7,"CC(C)Cn1c(=O)c(C(=O)NC2CC2)c(O)n2ncc(/C=C/C(=O)N3CC(F)(F)C3)c12 [compound 555, (E)-N-Cyclopropyl-3-(3-(3,3-difluoroazetidin-1-yl)-3-oxoprop-1-en-1-yl)-7-hydroxy-4-isobutyl-5-oxo-4,5-dihydropyrazolo[1,5-a]pyrimidine-6-carboxamide]",0.82 nM
8,"CC(C)Cn1c(=O)c(C(=O)NC2CC2)c(O)n2ncc(/C=C/C(=O)N3[C@H](C)COC[C@H]3C)c12 [compound 556, N-Cyclopropyl-3-((E)-3-((3R,5R)-3,5-dimethylmorpholino)-3-oxoprop-1-en-1-yl)-7-hydroxy-4-isobutyl-5-oxo-4,5-dihydropyrazolo[1,5-a]pyrimidine-6-carboxamide]",0.62 nM
9,"CC(C)Cn1c(=O)c(C(=O)NC2CC2)c(O)n2ncc(/C=C/C(=O)N3[C@H](C)COC[C@@H]3C)c12 [compound 557, N-Cyclopropyl-3-((E)-3-(cis-3,5-dimethylmorpholino)-3-oxoprop-1-en-1-yl)-7-hydroxy-4-isobutyl-5-oxo-4,5-dihydropyrazolo[1,5-a]pyrimidine-6-carboxamide]",0.81 nM
10,"COC1CN(C(=O)/C=C/c2cnn3c(O)c(C(=O)NC4CC4)c(=O)n(CC(C)C)c23)C1 [compound 558, (E)-N-Cyclopropyl-7-hydroxy-4-isobutyl-3-(3-(3-methoxyazetidin-1-yl)-3-oxoprop-1-en-1-yl)-5-oxo-4,5-dihydropyrazolo[1,5-a]pyrimidine-6-carboxamide]",1.14 nM
11,"CC(C)Cn1c(=O)c(C(=O)NC2CC2)c(O)n2ncc(/C=C/C(=O)N3CCC4(CCOCC4)C3)c12 [compound 559, (E)-N-Cyclopropyl-7-hydroxy-4-isobutyl-5-oxo-3-(3-oxo-3-(8-oxa-2-azaspiro[4.5]decan-2-yl)prop-1-en-1-yl)-4,5-dihydropyrazolo[1,5-a]pyrimidine-6-carboxamide]",1 nM
12,"CC[C@@H]1CCCN1C(=O)/C=C/c1cnn2c(O)c(C(=O)NC3CC3)c(=O)n(CC(C)C)c12 [compound 562, (R,E)-N-Cyclopropyl-3-(3-(2-ethylpyrrolidin-1-yl)-3-oxoprop-1-en-1-yl)-7-hydroxy-4-isobutyl-5-oxo-4,5-dihydropyrazolo[1,5-a]pyrimidine-6-carboxamide]",1.31 nM
13,"Cc1nn2c(O)c(C(=O)NC3CC3)c(=O)n(CC(C)C)c2c1/C=C/C(=O)N1CCOCC1 [compound 563, (E)-N-Cyclopropyl-7-hydroxy-4-isobutyl-2-methyl-3-(3-morpholino-3-oxoprop-1-en-1-yl)-5-oxo-4,5-dihydropyrazolo[1,5-a]pyrimidine-6-carboxamide]",0.7 nM
14,"Cc1nn2c(O)c(C(=O)NC3CC3)c(=O)n(CC(C)C)c2c1/C=C/C(=O)N1CCCC1 [compound 564, (E)-N-Cyclopropyl-7-hydroxy-4-isobutyl-2-methyl-5-oxo-3-(3-oxo-3-(pyrrolidin-1-yl)prop-1-en-1-yl)-4,5-dihydropyrazolo[1,5-a]pyrimidine-6-carboxamide]",0.95 nM
15,"Cc1nn2c(O)c(C(=O)NC3CC3)c(=O)n(CC(C)C)c2c1/C=C/C(=O)N1CCC(F)(F)C1 [compound 565, (E)-N-Cyclopropyl-3-(3-(3,3-difluoropyrrolidin-1-yl)-3-oxoprop-1-en-1-yl)-7-hydroxy-4-isobutyl-2-methyl-5-oxo-4,5-dihydropyrazolo[1,5-a]pyrimidine-6-carboxamide]",0.93 nM
16,"Cc1nn2c(O)c(C(=O)NC3CC3)c(=O)n(CC(C)C)c2c1/C=C/C(=O)N1CC[C@H](F)C1 [compound 566, (S,E)-N-Cyclopropyl-3-(3-(3-fluoropyrrolidin-1-yl)-3-oxoprop-1-en-1-yl)-7-hydroxy-4-isobutyl-2-methyl-5-oxo-4,5-dihydropyrazolo[1,5-a]pyrimidine-6-carboxamide]",0.94 nM
17,"Cc1nn2c(O)c(C(=O)NC3CC3)c(=O)n(CC(C)C)c2c1/C=C/C(=O)N1[C@@H](C)COC[C@@H]1C [compound 567, N-Cyclopropyl-3-((E)-3-((3S,5S)-3,5-dimethylmorpholino)-3-oxoprop-1-en-1-yl)-7-hydroxy-4-isobutyl-2-methyl-5-oxo-4,5-dihydropyrazolo[1,5-a]pyrimidine-6-carboxamide]",0.69 nM
18,"Cc1nn2c(O)c(C(=O)NC3CC3)c(=O)n(CC(C)C)c2c1/C=C/C(=O)N1CCOC[C@@H]1C [compound 568, (S,E)-N-Cyclopropyl-7-hydroxy-4-isobutyl-2-methyl-3-(3-(3-methylmorpholino)-3-oxoprop-1-en-1-yl)-5-oxo-4,5-dihydropyrazolo[1,5-a]pyrimidine-6-carboxamide]",0.68 nM
19,"Cc1nn2c(O)c(C(=O)NC3CC3)c(=O)n(CC(C)C)c2c1/C=C/C(=O)N1CC2CCC(C1)O2 [compound 569, (E)-3-(3-(8-Oxa-3-azabicyclo[3.2.1]octan-3-yl)-3-oxoprop-1-en-1-yl)-N-cyclopropyl-7-hydroxy-4-isobutyl-2-methyl-5-oxo-4,5-dihydropyrazolo[1,5-a]pyrimidine-6-carboxamide]",0.67 nM
20,"Cc1nn2c(O)c(C(=O)NC3CC3)c(=O)n(CC(C)C)c2c1/C=C/C(=O)N1CCOC[C@H]1C [compound 570, (R,E)-N-Cyclopropyl-7-hydroxy-4-isobutyl-2-methyl-3-(3-(3-methylmorpholino)-3-oxoprop-1-en-1-yl)-5-oxo-4,5-dihydropyrazolo[1,5-a]pyrimidine-6-carboxamide]",0.75 nM
21,"Cc1nn2c(O)c(C(=O)NC3CC3)c(=O)n(CC(C)C)c2c1/C=C/C(=O)N(C)C1CC1 [compound 572, (E)-N-Cyclopropyl-3-(3-(cyclopropyl(methyl)amino)-3-oxoprop-1-en-1-yl)-7-hydroxy-4-isobutyl-2-methyl-5-oxo-4,5-dihydropyrazolo[1,5-a]pyrimidine-6-carboxamide]",1.1 nM
22,"CC[C@@H]1COCCN1C(=O)/C=C/c1c(C)nn2c(O)c(C(=O)NC3CC3)c(=O)n(CC(C)C)c12 [compound 573, (R,E)-N-Cyclopropyl-3-(3-(3-ethylmorpholino)-3-oxoprop-1-en-1-yl)-7-hydroxy-4-isobutyl-2-methyl-5-oxo-4,5-dihydropyrazolo[1,5-a]pyrimidine-6-carboxamide]",0.88 nM
23,"Cc1nn2c(O)c(C(=O)NC3CC3)c(=O)n(CC(C)C)c2c1/C=C/C(=O)N1CCN(C)CC1 [compound 574, (E)-N-Cyclopropyl-7-hydroxy-4-isobutyl-2-methyl-3-(3-(4-methylpiperazin-1-yl)-3-oxoprop-1-en-1-yl)-5-oxo-4,5-dihydropyrazolo[1,5-a]pyrimidine-6-carboxamide]",0.79 nM
24,"Cc1nn2c(O)c(C(=O)NC3CC3)c(=O)n(CC3CCOCC3)c2c1/C=C/C(=O)N1CCOCC1 [compound 575, (E)-N-Cyclopropyl-7-hydroxy-2-methyl-3-(3-morpholino-3-oxoprop-1-en-1-yl)-5-oxo-4-((tetrahydro-2H-pyran-4-yl)methyl)-4,5-dihydropyrazolo[1,5-a]pyrimidine-6-carboxamide]",0.81 nM
25,"Cc1nn2c(O)c(C(=O)NC3CC3)c(=O)n(CC(C)C)c2c1/C=C/C(=O)N1[C@H](C)COC[C@H]1C [compound 576, N-Cyclopropyl-3-((E)-3-((3R,5R)-3,5-dimethylmorpholino)-3-oxoprop-1-en-1-yl)-7-hydroxy-4-isobutyl-2-methyl-5-oxo-4,5-dihydropyrazolo[1,5-a]pyrimidine-6-carboxamide]",0.86 nM
26,"CO[C@H]1CCN(C(=O)/C=C/c2c(C)nn3c(O)c(C(=O)NC4CC4)c(=O)n(CC(C)C)c23)C1 [compound 577, (S,E)-N-Cyclopropyl-7-hydroxy-4-isobutyl-3-(3-(3-methoxypyrrolidin-1-yl)-3-oxoprop-1-en-1-yl)-2-methyl-5-oxo-4,5-dihydropyrazolo[1,5-a]pyrimidine-6-carboxamide]",1.1 nM
